Literature values as cited in patent US6515198B2, “Use of purinergic receptor modulators and related reagents” (Syntex (U.S.A.) LLC, priority 2000, dated 2003).

Tested on: bladder sensory afferents
Settings: agents capable of desensitizing P2X3 receptor subunit responses

For Cc1ccc(C(=O)Nc2ccc(S(=O)(=O)O)c3cc(S(=O)(=O)O)cc(S(=O)(=O)O)c23)cc1NC(=O)c1cccc(NC(=O)Nc2cccc(C(=O)Nc3cc(C(=O)Nc4ccc(S(=O)(=O)O)c5cc(S(=O)(=O)O)cc(S(=O)(=O)O)c45)ccc3C)c2)c1 [suramin], which “effect on the activity of bladder sensory afferents” value is on record?
Its value is “decrease the activity of bladder sensory afferents”.

Which “effect on the activity of bladder sensory afferents” value does the source give for Nc1ncnc2c1ncn2[C@@H]1O[C@H](COP(=O)(O)CP(=O)(O)OP(=O)(O)O)[C@@H](O)[C@H]1O [αβ-ATP] here?
The value was “decrease the activity of bladder sensory afferents”.
